Where a name gives a salt, the structure may show the parent alone. Each block holds one molecule with its values, some of them ahead of it.
Tests used:
[1] = tested on: eyes of New Zealand White rabbits; assay: Pupil diameter, pupillary response and mortality observations after topical ocular instillation in rabbits (Example 10); settings: rabbit, in vivo
Procedure: The objective of this study was to evaluate the ocular pharmacokinetics of a 2% Mecamylamine in a GELRITE solution up to 6 hours following topical instillation into the eyes of New Zealand White rabbits. Nine New Zealand White female rabbits of minimum age of 9 weeks and weight 2-3 kg were obtained from The Rabbit Source (Ramona, Calif.) were used in the study.
On day 1, 2 drops of 50 μL of mecamylamine or vehicle were administered topically into the appropriate eye(s) of each animal as described in Table 13. The time of each dose administration was recorded.

[2] = Ocular bioavailability following intravenous administration (Example 2); type: in vivo, New Zealand White rabbit; settings: rabbit
Excerpt: This study was designed to model the ocular bioavailability of mecamylamine when administered systemically. Rabbit eyes are the preferred model for in vivo modeling of ocular drugs, however, the rabbit is not the subject of choice for modeling oral bioavailability. However, systemic administration does emulate orally administered mecamylamine to a reasonable approximation since mecamylamine has rapid absorption and high oral bioavailability. Therefore, intravenous injection was used to model ocular bioavailability of mecamylamine administered systemically, in order to determine the deposition of mecamylamine to the plasma, vitreous and posterior tissues (retina/choroid) of the eye from the blood.
The study comprised 2 groups (each N=6, 12 rabbits total) of male NZW (New Zealand White) rabbits weighing approximately 2.5-3 kg and obtained from Kralek Farms (Turlock, Calif.). Mecamylamine solution, prepared as described in Example 1, at a dose of 15 mg/kg was delivered via i.v. infusion as either a short infusion (1 hr) or slow infusion (6 hr) in rabbits sedated by ketamine/xylazine, with the slow infusion intended to model controlled systemic release of the mecamylamine.
For both groups, samples of the vitreous(≧0.1 ml) and plasma were withdrawn at 6 time points: pre-dose, 30 min, 1, 2, 4, and 6 hr. At 6 hours, all animals were sacrificed and vitreous and retinal tissues were collected. The total amount of mecamylamine administered during each infusion was the same, based on the weight of the individual rabbit.
The concentrations of mecamylamine present in the various samples were analyzed as described in Example 6, below.

endothelial nAChRs = settings: in vitro; endothelial cells; cited from earlier work
in vivo = settings: rabbit, in vivo
Procedure: As used herein, the term “topically administered to a rabbit eye,” and cognates thereof, refers to the administration of a particular mecamylamine formulation, including formulations of pharmaceutically acceptable salts of mecamylamine, by applying 100 μL of the mecamylamine formulation to the cornea of each eye (2 drops of 50 μL each), wherein at the time of application the bottom eyelid is separated from the surface of the eye to make a pocket to ensure the entire dose is retained in contact with the eye. When the concentration of mecamylamine in plasma and in the retinal/choroidal tissue is to be measured in connection with the calculation of the ratio of the mecamylamine concentration in the retina/choroid versus the concentration of mecamylamine in plasma, the concentration of each is determined 1 hour after application of the formulation. The amount of mecamylamine present in plasma and the retina/choroid is determined by LC/MS/MS using internal standards of dextromethorphan and diphenhydramine and a standard of known concentration of mecamylamine. An exemplary method of administration of the topical formulation of mecamylamine is provided in Example 5. An exemplary LC/MS/MS method for determining the ratios described herein is given in detail in Example 6. When the mean maximum concentration of mecamylamine in plasma is to be determined, the concentration is again determined as described above and in Example 6. The term “mean maximum concentration of mecamylamine,” and its cognates, as used herein refers to the mean maximum concentration of mecamylamine measured in plasma when monitored over a 6 hour time period after administration of the formulation. When the mean total concentration of mecamylamine in plasma is to be determined, the concentration is again determined as described above and in Example 6. The term “total concentration of mecamylamine in plasma measured as the area under the curve,” (AUC) and cognates thereof, refers to summation of the areas under plot of the drug plasma versus time using a simple trapezoidal method with drug plasma time points taken to include 1, 3 and 6 hours after topical administration. Determination of AUC for corneal tissue, retinal/choroid tissue and aqueous humor is determined similarly. When the concentration of mecamylamine in plasma and in the corneal tissue is to be measured in connection with the calculation of the ratio of the mecamylamine concentration in the cornea (or aqueous humor) versus the concentration of mecamylamine in plasma, the concentration of each is determined 1 hour after application of 50 μl of the formulation. The amount of mecamylamine present in plasma and the cornea (or aqueous humor) is determined by LC/MS/MS using internal standards of dextromethorphan and diphenhydramine and a standard of known concentration of mecamylamine. An exemplary method of administration of the topical formulation of mecamylamine is provided in Example 5. An exemplary LC/MS/MS method for determining the ratios described herein is given in detail in Example 6.
A single dose of a polymer-free solution, gellan gum formulation and hypromellose formulation containing 3% mecamylamine hydrochloride, was instilled in the eyes of rabbits (Dutch-belted male rabbits (Convance, Denver, Pa.) minimum age 2 months and with weights of 1.6 to 1.8 kg). Two animals were euthanized 30 minutes, 1 hour or 3 hours after dosing.
Sample of blood and ocular tissue (obtained as described in previous examples) were analyzed for mecamylamine concentration using an LC MS/MS method up to 3 hours after dosing.
The area-under-the-curve (AUC) was calculated using a trapezoidal rule on a population pharmacokinetic basis (see Table 9).

Molecule: CNC1(C)C2CCC(C2)C1(C)C (stereo not shown) [mecamylamine hydrochloride]
pupil diameter and pupil diameter response to light (mydriasis) [1]: did not result in significant changes in pupil diameter or pupil diameter response to light
mean maximum concentration of mecamylamine in plasma ([2]; long i.v. infusion (FIG. 2)): greater than 500 ng/mL
mean maximum concentration of mecamylamine in plasma ([2]; short i.v. administration (FIG. 1)): > 1500 ng/mL

Molecule: CN1CCCC1c1cccnc1 (stereo not shown) [nicotine]
concentrations at which the maximal effect of nicotine occurs (endothelial nAChRs): 10 to 100 nM

Aqueous Humor AUC (in vivo): 7,355 ng/mL*hr
Cornea AUC (in vivo): 114000 ng·h/g
Plasma AUC (in vivo): 61 ng·h/mL
Ratio Aqu H:plasma (AUC) (in vivo): 120
Ratio Cornea:Plasma (AUC) (in vivo): 1,868:1
Ratio Retina/Choroid:Plasma (AUC) (in vivo): 291:1
Retina/Choroid AUC (in vivo): 17800 ng·h/g
Mecamylamine AUC, Anterior sclera (in vivo; topical or ocular): 32790 ng·h/g
Mecamylamine AUC, Aqueous humor (in vivo; topical or ocular): 7355 ng·h/mL
Mecamylamine AUC, Conjunctiva (in vivo; topical or ocular): 114398 ng·h/g
Mecamylamine AUC, Cornea (in vivo; topical or ocular): 113938 ng·h/g
Mecamylamine AUC, Extraocular muscle (in vivo; topical or ocular): 31236 ng·h/g
Mecamylamine AUC, Iris-ciliary body (in vivo; topical or ocular): 114813 ng·h/g
Mecamylamine AUC, Lens (in vivo; topical or ocular): 1064 ng·h/g
Mecamylamine AUC, Optic Nerve (in vivo; topical or ocular): 11515 ng·h/g
Mecamylamine AUC, Posterior sclera (in vivo; topical or ocular): 23638 ng·h/g
Mecamylamine AUC, Retina/Choroid (in vivo; topical or ocular): 17804 ng·h/g
Mecamylamine AUC, Vitreous humor (in vivo; topical or ocular): 335 ng·h/mL
Molecule: HPMC

From patent US20070167526A1, “Topical mecamylamine formulations for ocular administration and uses thereof” (priority 2005, published 2007)
